Where a SMILES comes first, the peptide text is derived from it. The star is where a group is joined. X1 = O=C(CCCC(=O)*)OCc1cc(O)c2c(c1)C(=O)c1cccc(O)c1C2=O
Tests used:
NK-92 cells [1] = test: Apoptosis in NK-92 cells, Annexin V-FITC flow cytometry; type: cell-based, Human; conditions: 48 h
Procedure: (§1) Apoptosis was quantified using FITC-conjugated annexin V (AV) according to the manufacturer’s protocol (Marine Biological Laboratory, Woods Hole, MA, USA). Annexin V-FITC staining in NK-92 cell lines was determined after 48 h in the absence or presence of different amounts of Aloe-emodin (9 mM stock solution in DMSO) ranging from 6.25 to 50 μM. Proliferation was evaluated by measuring Ki-67 nuclear antigen expression using FITC-labeled anti-human Ki-67 mAb according to the manufacturer’s protocol (BD Biosciences, San Jose, CA, USA). Acquisition was performed on a FACSCalibur flow cytometer (BD Biosciences) and at least 10,000 events per sample were run. Data were analyzed using the Cell Quest Pro software (BD Biosciences) and expressed as mean ± standard deviation from 2 independent experiments.

NK-92 cells [2] = test: Proliferation of NK-92 cells, Ki-67 flow cytometry; type: cell-based, Human; conditions: 48 h, all concentrations except 50 μM
Procedure: as §1

NK-92 cells [3] = test: Growth inhibition of NK92 cells, WST-8 assay; conditions: 20, 10, 5 and 1 µM, 24, 48 and 72 h, WST-8, two independent experiments
Procedure: NK-92 cell lines in exponential phase of growth were collected, extensively washed with warm RPMI-1640, and seeded (in triplicate) in 96-well microtiter Costar plates (Costar, Rochester, NY, USA) at a density of 5 × 10^3 cells/mL. The cells were cultured in BM containing recombinant IL-2(100 IU/mL). In the growth inhibition assays, NK92 cells were maintained for 24, 48, and 72 h at 37 °C alone or in the presence of 20, 10, 5, and 1 µM of Aloe-emodin, glutaryl derivatives of AE and AE-CPP-LTV (6). For all above-described experiments, cell survival was determined by WST-8 assay (Orangu™ Cell Counting SolutionWST-8 cell proliferation kit (Aurogene, Rome, Italy), after 24, 48, and 72 h treatment at 37 °C in 5% CO2. Cells were treated with different compounds/absorbance values of control (cells incubated with vehicle alone) cells * 100%. Statistical analysis was performed by the Student’s t-test (2-tailed) to assess differences between means of data analyzed. The p-values are indicated in the figure legends. The statistical analysis of differences was performed with GraphPad Prism 8.

A549 cells = test: MTT cell viability assay in A549 cells; type: cell-based, Human
Procedure: (§2) The compounds (2), (3), and (6), were evaluated for cell viability effects using the MTT assay on SKBR3 and A549 cells at 24, 48, and 72 h at different concentrations. Cell lines were seeded into 96-well microtiter plates (Corning, Inc., Corning, NY, USA) at a density of 1 × 10^4 cells/well. After 24 h, cells were exposed to increased concentrations of compounds (previously prepared in PBS to obtain a stock solution of 1 mM) in cell culture medium. After an incubation time of 24, 48, and 72 h, media were removed and MTT (Sigma, Deisenhofen, Germany) diluted in culture media was added to each well at 0.5 mg/mL. Plates were incubated for 2 h at 37 °C in 5% CO2 incubator; unreacted dye was removed, and cells were solubilized in DMSO (Merck, Darmstadt, Germany). Absorbance was read at 570 nm by an ELISA plate reader (Biorad). Data were expressed as cell metabolic activity, which was calculated as the absorbance value of cells treated with different compounds/absorbance value of control (cells incubated with vehicle alone) cells * 100%. All experiments were performed in triplicate, and all data were expressed as the mean ± standard deviation. One-way ANOVA with Dunnett’s multiple comparisons test was performed with respect to the controls (**** p < 0.0001).

[4] = tested on: NK92 cells killing K562 target cells; test: NK92 cell-mediated cytotoxicity against K562 cells, LDH release; type: cell-based, Human; conditions: NK92 treated 48 h with 5 to 20 μM, E:T ratio 10:1, 4 h with K562, LDH release, 4 independent experiments
Procedure: To determine NK-92’s cell cytotoxicity, CytoTox 96 non-radioactive cytotoxicity assay (Promega, Madison, WI) was used, based on the colorimetric detection of the released enzyme LDH. NK-92 cells were harvested, washed, counted, and diluted at the concentration of 1 × 10^6 cells/mL in BM with 10% FCS and 100 μ/mL of IL-2. […] Target cells were harvested, washed, resuspended to 1 × 10^5 cells/mL in BM, added, and incubated with effector cells for 4 h at 37 °C employing incresingincreasing effector/target cell ratio ranging from 0.625:1 to 10:1 in triplicate. A total of 50 μL of supernatants were assayed for LDH activity according to the manufacturer’s instruction. Controls for spontaneous and maximum LDH release in effector and target cells were also assayed. The calculation of cytotoxicity percentage was as follows: (Experimental—Effector Spontaneous—Target spontaneous)/(Target Maximum—Target Spontaneous) × 100. Data are expressed as mean ± standard deviation from 4 independent experiments. […] The statistical analysis was performed with GraphPad Prism 8.

SKBR3 cells = test: MTT cell viability assay in SKBR3 cells; type: cell-based, Human
Procedure: as §2

SMILES | effect on NK-92 cells at the higher dose (NK-92 cells [1]; 50 μM) | apoptosis of NK-92 cells (NK-92 cells [1]; 6.25 to 50 μM, all concentrations except 50 μM, Annexin V-FITC) | proliferation of NK-92 cells (NK-92 cells [2]) | growth inhibition of NK-92 cells (NK-92 cells [3]) | comparative cell viability reduction (3 versus AE (2); 6 versus 3 at 20 μM) (A549 cells) | concentration at which effect on cell viability is already seen (A549 cells) | NK92-mediated cytotoxicity against K562 compared with untreated NK92 cells [4] | comparative cell viability reduction (3 versus AE (2); 6 versus 3 at 20 μM) (SKBR3 cells) | concentration at which effect on cell viability is already seen (SKBR3 cells)
O=C1c2cccc(O)c2C(=O)c2c(O)cc(CO)cc21 [compound 2, 8-dihydroxy-3-hydroxymethyl-anthraquinone] | cytotoxic effect | neither AE (2) induced apoptosis or affected proliferation | neither AE (2) induced apoptosis or affected proliferation | – | – | – | – | – | –
O=C(O)CCCC(=O)OCc1cc(O)c2c(c1)C(=O)c1cccc(O)c1C2=O [compound 3, 5-((4,5-dihydroxy-9,10-dioxo-9,10-dihydroanthracen-2-yl)methoxy)-5-oxopentanoic acid] | – | – | – | did not induce growth inhibition | more effective | effective already at 5 µM | less NK92-mediated cytotoxicity than the control sample | more effective | effective already at 5 µM
CC(C)C[C@H](NC(=O)CNC(=O)[C@@H]1CCCN1C(=O)CNC(=O)[C@@H](NC(=O)[C@H](CCCCN)NC(=O)[C@H](CCCNC(=N)N)NC(=O)[C@H](CCCCN)NC(=O)[C@H](CCCCN)NC(=O)[C@H](CCCCN)NC(=O)[C@@H]1CCCN1C(=O)CCCC(=O)OCc1cc(O)c2c(c1)C(=O)c1cccc(O)c1C2=O)C(C)C)C(=O)N[C@H](C(=O)N[C@H](C(=O)N[C@@H](CO)C(=O)N1CCC[C@H]1C(=O)N[C@@H](Cc1c[nH]c2ccccc12)C(=O)N[C@@H](Cc1ccc(O)cc1)C(=O)O)C(C)C)[C@@H](C)O [compound 6] (X1-PKKKRKVGPGLTVSPWY-OH) | – | – | – | did not induce growth inhibition | – | – | – | – | –

Reference: publication PMC9320513, “Peptide-Mediated Targeted Delivery of Aloe-Emodin as Anticancer Drug” (Molecules, 2022)
